# Measurements as given in patent publication US20240116986A1, “FUSION PEPTIDES CONTAINING DIMERIC ALPHA-HELICES, PEPTIDE-MOLECULARCONJUGATES CONTAINING THE SAME AND NUCLEIC ACID DELIVERY COMPOSITIONSCONTAINING THE SAME” (Artprobio Co., Ltd., priority 2022, published 2024).
# Read-outs that look alike come from different tables or passages of the source.
# Columns and labels:
# ssDNA PolyT40 = experiment: EMSA with ssDNA PolyT40; assay type: binding
# ssDNA PolyT200 = experiment: EMSA with ssDNA PolyT200; assay type: binding
# Experimental: The peptide-molecule conjugates of Examples 16, 17 and 18 (Glc2-AA-U2, Glc2-AA-U4, Glc2-AA-U6) were dispersed in distilled water. […] After preparing the mixtures of the peptide-molecule conjugates of Examples 16, 17 and 18 (Glc2-AA-U2, Glc2-AA-U4, Glc2-AA-U6) and the ssDNA PolyT200 (5 μL) at the nucleobase ratios described above, they were analyzed by EMSA.
# The aqueous solution of the peptide-molecule conjugate of Example 19 (Glc2-AA-U8) was sonicated for 5 minutes or heated at 90° C. for 5 minutes, respectively. The heated peptide-molecule conjugate was indicated by ‘heat’.
# The mixtures prepared by mixing the peptide-molecule conjugate of Example 19 (Glc2-AA-U8) aqueous solution (sonicated or heated) and ssDNA PolyT200 (5 μL) at nucleobase ratios of 20, 30 or 40 were analyzed by EMSA.
# EGFP mRNA = experiment: EMSA of nanostructure formation with EGFP mRNA; assay type: binding
# Experimental: When a nanostructure was formed through self-assembly by reacting a peptide-molecule conjugate (SAB) with a nucleic acid material (dsDNA or mRNA), agarose gel EMSA was conducted to measure their interactions, binding ratio, stability, etc.
# First, the nucleic acid material of a fixed concentration (100 fmol mRNA) was reacted with the peptide-molecule conjugate (SAB) of various concentrations. Immediately before mixing with the nucleic acid material, the peptide-molecule conjugate (SAB) was sonicated for 5 minutes to prevent self-aggregation. The sonicated peptide-molecule conjugate (SAB, 5 μL) was added to the nucleic acid material ([…]) and a nanostructure was prepared by adding distilled water. The sample was prepared by snap cooling. Specifically, after heating at 70° C. for 10 minutes and snap-cooling on ice, the prepared sample was stored at room temperature. The stored sample was mixed with 2 μL of 60% glycerol. Electrophoresis was performed at 100 V for 60 minutes on 0.8% agarose gel using 1×TBE. The band was observed after staining with SYBR™ Gold nucleic acid gel stain (Invitrogen, Waltham, USA).
# After sonicating the peptide-molecule conjugate (SAB-gn, n=1 to 6) aqueous solution for 5 minutes, it was immediately mixed with an EGFP mRNA (200 μL) solution. […] An […] nanostructure was prepared as follows by mixing the peptide-molecule conjugate (SAB-gn, n=1 to 6) with the EGFP mRNA. […] The EGFP mRNA and the peptide-molecule conjugate (SAB-gn, n=1 to 6) were mixed at a charge ratio (+/−) of 0, 0.008, 0.016, 0.031, 0.063, 0.125, 0.25, 0.5, 1, 2, 4, 8, 16, 32 or 50.
# After incubating the mixture solution overnight and centrifuging at 16,100 g for 30 minutes, the mixture was resuspended in deionized water. After washing twice, the resulting nanostructure was analyzed by EMSA.
# After incubating the mixture solution overnight and centrifuging at 16,100 g for 30 minutes, the mixture was resuspended in deionized water.
# After heating the mixed solution for 10 minutes at 70° C., it was immediately snap-cooled on ice. RiboRuler Low Range RNA Ladder and RiboRuler High Range RNA Ladder (Thermo Scientific, Waltham, USA) were used on the two lanes on the left side of agarose gel in order to identify the relative locations of the EGFP mRNA bands. The bands of the RiboRuler Low Range RNA Ladder correspond to 1000, 800, 600, 400, 300, 200 and 100 bases, from top to bottom, and the bands of the RiboRuler High Range RNA Ladder correspond to 6000, 4000, 3000, 2000, 1500, 1000, 500 and 200 bases, from top to bottom. Then, the mixtures with charge ratios (+/−) of 0, 0.031, 0.063, 0.125, 0.25, 0.5, 1, 2, 4, 8 and 16 were loaded in sequence.
# After heating the mixed solution for 10 minutes at 70° C., it was immediately snap-cooled on ice. RiboRuler High Range RNA Ladder (Thermo Scientific, Waltham, USA) was used on the left side of agarose gel in order to identify the relative locations of the EGFP mRNA bands. The bands of the RiboRuler High Range RNA Ladder correspond to 6000, 4000, 3000, 2000, 1500, 1000, 500 and 200 bases, from top to bottom. Then, the samples were loaded with charge ratios (+/−) of 00, 0.063, 0.125, 0.25, 0.5, 1, 2, 4, 8, 16 and 32 in sequence.
# [1] = different nucleobase ratios (20-100)
# [2] = 20 nM EGFP mRNA, 70° C. 10 minutes, snap-cooled
# Experimental for ssDNA PolyT100: The concentration of the ssDNA was fixed and the concentration of the peptide-molecule conjugate aqueous solution was varied based on the nucleobase ratio.
# After incubating the mixture of the peptide-molecule conjugate and ssDNA overnight, it was analyzed by EMSA.
substance,measurement,setting,value
Ac-(PEG8)-AELAALEAELAALE(Ahx)2-E (adenine)E (adenine)-(Ahx)2-KLAALKAKLAALKAG-(PEG8) [PEG82-AA-U0],electrophoretic mobility (EMSA),"ssDNA PolyT40; nucleobase ratio 1280:1, compared with Example 12",delayed relatively more
Ac-(PEG8)-AELAALEAELAALE-(Ahx)2-E (adenine)-(Ahx)2-KLAALKAKLAALKAG-(PEG8) [PEG82-A-U0],electrophoretic mobility (EMSA),ssDNA PolyT40; nucleobase ratio 640,delayed slightly
Ac-R-GS-UELUALEUELAULE-(Ahx)2-E (adenine)E (adenine)-(Ahx)2-KLUALKUKLAULKUG-K (glucose) [R-AA-Glc-U8],nanostructure formation (EMSA),ssDNA PolyT200; nucleobase ratio 60,successfully form
Ac-R-GS-UELUALEUELAULE-(Ahx)2-E (thymine)E (thymine)-(Ahx)2-KLUALKUKLAULKUG-K (glucose) [R-TT-Glc-U8],nanostructure formation (EMSA),ssDNA PolyT200; nucleobase ratio 60,successfully form
Ac-R-GS-UELUALEUELAULE-(Ahx)2-E (thymine)E (thymine)-(Ahx)2-KLUALKUKLAULKUG-K(PEG8)2 [R-TT-PEG82-U8],nanostructure formation (EMSA),ssDNA PolyT200; [1],successfully form
Ac-R-GS-UELUALEUELAULE-(Ahx)2-E (thymine)E (thymine)-(Ahx)2-KLUALKUKLAULKUG-K(PEG8) [R-AA-PEG8-U8],nanostructure formation (EMSA),ssDNA PolyT200; [1],successfully form
Ac-S-GS-UELUALEUELAULE-(Ahx)2-E (thymine)E (thymine)-(Ahx)2-KLUALKUKLAULKUG-K(PEG8) [S-TT-PEG8-U8],nanostructure formation (EMSA),ssDNA PolyT200; [1],successfully form
Glucose-(PEG8)-AELAALEAELAALE-(Ahx)2-K-(Ahx)2-KLAALKAKLAALKAG-(PEG8)-K(^Nglucose)-NH2 [SAB-g2],+/− (optimum charge ratio of EGFP mRNA and conjugate showing completely delayed electrophoretic mobility),EGFP mRNA,>30
Glucose-(PEG8)-AELAALEAELAALE-(Ahx)2-K-(Ahx)2-KLAALKAKLAALKAG-(PEG8)-NH2 [SAB-g1],+/− (optimum charge ratio of EGFP mRNA and conjugate showing completely delayed electrophoretic mobility),EGFP mRNA,20
Glucose-GS-AELAALEAELAALE-(Ahx)2-E (adenine)-E (adenine)-(Ahx)2-KLAALKAKLAALKAG-GS [Glc1-AA-U0],electrophoretic mobility (EMSA),"ssDNA PolyT100; nucleobase ratio 40:1, compared with Example 15",delayed relatively more
same,electrophoretic mobility (EMSA),ssDNA PolyT100; nucleobase ratio 80:1,delayed completely
Glucose-GS-AELAALEAELAALE-(Ahx)2-E (thymine)-E (thymine)-(Ahx)2-KLAALKAKLAALKAG-GS [Glc1-TT-U0],electrophoretic mobility (EMSA),ssDNA PolyT100; nucleobase ratio 80:1,no electrophoretic mobility was observed
Glucose-GS-AELAALEAELAALE-(Ahx)2-K-(Ahx)2-KLAALKAKLAALKAG-K(^Nglucose)-NH2 [SAB-g3],+/− (optimum charge ratio of EGFP mRNA and conjugate showing completely delayed electrophoretic mobility),EGFP mRNA,0.25
same,Hill coefficient,EGFP mRNA,4.6
same,half-saturation constant KSAB-g3,EGFP mRNA,0.152
Glucose-GS-AELAALEUELAALE-(Ahx)2-E (adenine)E (adenine)-(Ahx)2-KLAALKUKLAALKAG-K (glucose) [Glc2-AA-U2],nanostructure formation (EMSA),ssDNA PolyT200; [1],formed successfully
Glucose-GS-AELAALEUELAALE-(Ahx)2-K-(Ahx)2-KLAALKUKLAALKAG-K(^Nglucose)-NH2 [SAB-g4],+/− (optimum charge ratio of EGFP mRNA and conjugate showing completely delayed electrophoretic mobility),EGFP mRNA,5
Glucose-GS-AELUALEAELAULE-(Ahx)2-E (adenine)E (adenine)-(Ahx)2-KLUALKAKLAULKAG-K (glucose) [Glc2-AA-U4],nanostructure formation (EMSA),ssDNA PolyT200; [1],formed successfully
Glucose-GS-AELUALEAELAULE-(Ahx)2-K-(Ahx)2-KLUALKAKLAULKAG-K(^Nglucose)-NH2 [SAB-g5],+/− (optimum charge ratio of EGFP mRNA and conjugate showing completely delayed electrophoretic mobility),EGFP mRNA,10
Glucose-GS-AELUALEUELAULE-(Ahx)2-E (adenine)E (adenine)-(Ahx)2-KLUALKUKLAULKAG-K (glucose) [Glc2-AA-U6],nanostructure formation (EMSA),ssDNA PolyT200; [1],formed successfully
Glucose-GS-AELUALEUELAULE-(Ahx)2-K-(Ahx)2-KLUALKUKLAULKAG-K(^Nglucose)-NH2 [SAB-g6],+/− (optimum charge ratio of EGFP mRNA and conjugate showing completely delayed electrophoretic mobility),EGFP mRNA,>4
Glucose-GS-UELUALEUELAULE-(Ahx)2-E (adenine)E (adenine)-(Ahx)2-KLUALKUKLAULKUG-K (glucose) [Glc2-AA-U8],nanostructure formation with EGFP mRNA (EMSA),"EGFP mRNA; four conjugates used together (AA 6%, CC 21%, GG 26%, TT 47%), nucleobase ratio 1:1-1:15",successfully forms the nanostructure
same,nanostructure formation (EMSA) after sonication or heating of conjugate,"ssDNA PolyT200; nucleobase ratios 20, 30 or 40, sonicated 5 minutes or heated at 90° C. 5 minutes",successfully binding to ssDNA PolyT200
Glucose-GS-UELUALEUELAULE-(Ahx)2-E (cytosine)E (cytosine)-(Ahx)2-KLUALKUKLAULKUG-K (glucose) [Glc2-CC-U8],nanostructure formation with EGFP mRNA (EMSA),EGFP mRNA,successfully forms the nanostructure
Glucose-GS-UELUALEUELAULE-(Ahx)2-E (guanine)E (guanine)-(Ahx)2-KLUALKUKLAULKUG-K (glucose) [Glc2-GG-U8],nanostructure formation with EGFP mRNA (EMSA),EGFP mRNA,successfully forms the nanostructure
Glucose-GS-UELUALEUELAULE-(Ahx)2-E (thymine)E (thymine)-(Ahx)2-KLUALKUKLAULKUG-K (glucose) [Glc2-TT-U8],nanostructure formation with EGFP mRNA (EMSA),EGFP mRNA,successfully forms the nanostructure
Glucose-SGSG-C-GG-AUAUAUAUAUA-GG-R-GG-AUAUAUAUAUA-GG-C (cyclic; disulfide) [SAB #31],EMSA bands of EGFP mRNA,EGFP mRNA,bands of the EGFP mRNA weaken gradually with the increase of charge ratio
Glucose-SGSG-C-GG-AUAUAUAUAUA-GG-R-GG-AUAUAUAUAUA-GG-C (linear) [#30],charge ratio (+/−) at which a complete nanostructure was formed,EGFP mRNA,≥ 8
Glycolic acid-SGSG-C-GG-AUAUAUAUAUA-GG-R-GG-AUAUAUAUAUA-GG-C (cyclic; disulfide) [cyc-R(AU)A5-Ga],charge ratio (+/−) at which a complete nanostructure was formed,EGFP mRNA; [2],16
Glycolic acid-SGSG-C-GG-AUAUAUAUAUA-GG-R-GG-AUAUAUAUAUA-GG-C (linear) [lin-R(AU)A5-Ga],charge ratio (+/−) at which a complete nanostructure was formed,EGFP mRNA; [2],≥ 1.0
